Data reported in publication PMC3105096, “Construction of Chimeric Dual-Chain Avidin by Tandem Fusion of the Related Avidins” (PLoS ONE, 2011).

Experiments:
[1] = molecular target: T1, AVR4(C122S); also printed AVR4(C112S) (Gallus gallus, UniProt P56734, C146S); test: SDS-PAGE thermostability of acylated protein; format: binding; conditions: thermal shift of subunit dissociation; Tr without biotin 90 °C; 140 µM D-biotin
T1 construct: recombinant AVR4 with cysteine-to-serine change, tetramer
Excerpt: SDS-PAGE thermostability of acylated protein on AVR4(C122S); also printed AVR4(C112S)

[2] = molecular target: chimeric dual-chain avidin dcAVD/AVR4 (tandem fusion of circularly permuted avidin cp54 and circularly permuted AVR4 cp65) (chicken); test: SEC; Superdex 75 10/300 GL, 50 ug protein in 50 mM NaPO4 pH 7, 650 mM NaCl; column calibrated with Bio-Rad standards 1.5-67 kDa; dimer of the dual-chain polypeptide (pseudotetramer)

T1 sequence (P56734 25-150 C146S): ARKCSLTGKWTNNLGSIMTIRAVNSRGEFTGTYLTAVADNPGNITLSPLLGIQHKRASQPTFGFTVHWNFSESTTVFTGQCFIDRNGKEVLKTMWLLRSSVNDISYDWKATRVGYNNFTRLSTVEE

Compound | SDS-PAGE / Tr ^(+BTN) (°C) [1] | stoichiometry N [2]
O=C(O)CCCC[C@@H]1SC[C@@H]2NC(=O)N[C@@H]21 [D-biotin] | 95 °C | 
chimeric dual-chain avidin dcAVD/AVR4 (tandem fusion of circularly permuted avidin cp54 and circularly permuted AVR4 cp65) |  | 2
